In patent US20230151021A1, “Compounds and Compositions for Treating Hematologic Malignancies” (priority 2020, published 2023):

Tests used:
Raji cells [1] = experiment: cells; type: cell-based, human; settings: Homo sapiens
LCL1 cells = experiment: Cell viability assay (CellTiter-Glo luminescence); type: cell-based; settings: Homo sapiens; LCL1, 5000 cells, 72 hours; read-out: half-maximal inhibitory concentration (IC50)
SU-DHL-4 cells [2] = experiment: Cell viability assay (CellTiter-Glo luminescence); type: cell-based; settings: Homo sapiens, SU-DHL-4, 48 h, read-out: viability of cells inhibited
[3] = test system: HL60, K562, MOLM14 and SU-DHL-4 cell lines; experiment: IC50 of Brusatol in less and more sensitive cell lines; type: cell-based, human; settings: 72 hours
Experimental: FIGS. 5A-5F: PI3K family of proteins is crucial for Brusatol-mediated inhibitory effects. FIG. 5A: IC50 assays of Brusatol were determined in the indicated cancer cells. All of the cells were treated for 72 hours. […] NS, not significant. […] Then cells were fixed and stained with PI. Flow cytometry assays were performed to determine cell cycle progression. The subG1 population in cells was labeled as the percentage. […] FIG. 5F: The described cells were incubated with Brusatol (0, 50 nM, 100 nM) for different periods (0, 12 hours, 24 hours).

HL-60 cells = experiment: Cell cycle assay (PI staining, flow cytometry); type: cell-based, human; settings: HL-60, 100 nM, 48 hours
Experimental: (§1) 5 million cells were harvested, fixed with 80% ethanol for 2 hours or overnight at −20° C., then washed with PBS and incubated with Propidium iodide (PI) staining buffer (0.5 mg/ml propidium iodide in PBS with 50 μg/ml RNase A) for 30 minutes at room temperature. The stained cells were resuspended in PBS and analyzed on a FACSCalibur system (Becton Dickinson, San Jose, Calif., USA) using FlowJo software (TreeStar, San Carlos, Calif., USA).

K562 cells = experiment: Cell cycle assay (PI staining, flow cytometry); type: cell-based, human; settings: K562, 100 nM, 48 hours
Experimental: as §1

Raji cells [4] = experiment: Cell cycle assay (PI staining, flow cytometry); type: cell-based, human; settings: 100 nM, 48 hours
Experimental: as §1

SU-DHL-4 cells [5] = experiment: Cell cycle assay (PI staining, flow cytometry); type: cell-based, human; settings: SU-DHL-4, 100 nM, 48 hours
Experimental: as §1

AKT1, GSK3, and mTOR = experiment: Western blot of PI3K/AKT regulated signaling proteins; type: cell-based, human; settings: Raji and SU-DHL-4 cells; 0, 50 nM, 100 nM; 0, 12 hours, 24 hours
Experimental: Western blot analyses were performed as previously described. Briefly, total cell lysates were separated by SDS-PAGE gel and transferred to nitrocellulose membrane. The membranes were blocked with 5% non-fat milk, probed with specific antibodies, and visualized using the Odyssey scanner (LiCor Inc., Lincoln, Nebr.).

NOD/SCID mice = experiment: In vivo toxicity test; settings: 5 mg/kg intraperitoneally every other day, 24 days
Experimental: […]; 4 mice per group) were intraperitoneally injected with a maximum dose of […] of Brusatol, #15 or #26 compound every other day (three times per week). The survival rate was recorded to monitor the tolerance of the compounds in these mice.
[…]. Six-week-old male NOD.CB17PrkdcSCID/J (NOD/SCID) mice (Jackson Labs, Bar Harbor, Me., USA; 4 mice per group) were intraperitoneally injected with a dose of 5 mg/kg of one of three compounds—brusatol, 15, or 26—every other day, three times per week. The mice were monitored and euthanized after 24 days of treatment. […]. […] […].

[6] = MetID profile in mouse liver microsomes; type: in vitro ADME; settings: 60 min of incubation
Experimental: In order to determine if 26 induces liver microsomal metabolism changes, the MetID profile of 26 in mouse liver microsomes was investigated under the same conditions as for brusatol. […] However, 87% of 26 (area %) was detected after 60 min of incubation while five identified metabolites were all in relatively small percentages.

Plasma stability [7] = experiment: Plasma stability
Plasma stability [8] = experiment: Plasma stability; remark: listed apart in the source
[9] = Stability in simulated gastric fluid
[10] = Stability in simulated intestinal fluid

With `COC(=O)[C@@]12OC[C@]34C([C@@H](O)[C@@H]1O)[C@@]1(C)CC(=O)C(O)=C(C)[C@@H]1C[C@H]3OC(=O)[C@H](OC(=O)C=C(C)C)[C@@H]24` (stereo partly drawn) [Brusatol, methyl (1R,2S,3S,3aS,3a1R,4R,6aR,7aR,11aS)-1,2,9-trihydroxy-8,11a-dimethyl-4-((3-methylbut-2-enoyl)oxy)-5,10-dioxo-1,4,5,6a,7,7a,10,11,11a,11b-decahydro-2H-3,3a1-(epoxymethano)dibenzo[de,g]chromene-3(3aH)-carboxylate] the cytotoxicity at 0.1 µM (Raji cells [1]; 100 nM, 48 hours post-treatment, read-out: viability of cells inhibited) was greater than 80%, the IC50 (Raji cells [1]; 5000 cells, 72 hours, read-out: half-maximal inhibitory concentration (IC50)) was 2 to 6 nM and the IC50 (LCL1 cells) was 2 to 6 nM. The cytotoxicity at 0.1 µM (SU-DHL-4 cells [2]) was greater than 80%, the “fold more sensitive (IC50), MOLM14 and SU-DHL-4 compared to HL60 and K562” value [3] was “about 10 fold” and the “cells in the sub-G1 phase” value (HL-60 cells) was 7.63%. For the same compound, the “cells in the sub-G1 phase” value (K562 cells) was 3.19%, the “cells in the sub-G1 phase” value (Raji cells [4]) was 68.4% and the “cells in the sub-G1 phase” value (SU-DHL-4 cells [5]) was 67.9%. The “protein expression of AKT1, GSK3, and mTOR (in words)” value (AKT1, GSK3, and mTOR) was “significantly reduced”, the “mice survived (of four)” value (NOD/SCID mice) was “three” and the survival (NOD/SCID mice; 4 mice per group) was 75%. For the same compound, the “parent detected after incubation in mouse liver microsomes (area %)” value [6] was 40%, the “Plasma stability remaining % at 60 min, human” value (Plasma stability [7]) was 91% and the “Plasma stability remaining % at 60 min, rat” value (Plasma stability [8]) was 100%. The “Stability in simulated gastric fluid (% at 4 h)” value [9] was 109% and the “Stability in simulated intestinal fluid (% at 4 h)” value [10] was 100%.
